From publication PMC9539280 (Advanced Science, 2022) come the findings set out here.

Series [1] concerns hCMs.
Series [2] deals with hCMs. The experiment in a line: Spontaneous calcium transient measurement (Fluo-4) in hCMs. The settings on record: spontaneous, 6 days.
[3] abbreviates: escalating concentrations (lopinavir: high dosage only).

For the molecule `Cc1cccc(/C=N/Nc2cc(N3CCOCC3)nc(OCCc3ccccn3)n2)c1` [Apilimod, apilimod], in the series with hCMs [1], the spontaneous calcium transients result was “no calcium transients were observed”.
`CCC(CC)COC(=O)[C@H](C)N[P@](=O)(OC[C@H]1O[C@@](C#N)(c2ccc3c(N)ncnn23)[C@H](O)[C@@H]1O)Oc1ccccc1` [Remdesivir, remdesivir]: the calcium transient amplitude entry in the series on hCMs [2] (escalating concentrations (1-20 μM)) was “tended to decrease”. In the series with hCMs [2] (setting [3]), the “time to 50% decay of the calcium transients” value is given as “significantly increased” and the “time to peak of the calcium transients” value is reported as “significantly increased”.
